Assay results reported in US20220304979A1, “METHODS OF REDUCING DISEASE FLARES” (Chinook Therapeutics, Inc., priority 2019, published 2022).

Test system: kidney tissue of g-ddY mice
Test: RNA-seq differential gene expression in kidney tissue of g-ddY mice
Assay type: in vivo, mouse
Experimental: RNA isolation and sequencing libraries were generated using standard protocols. Sequencing was performed using an Illumina NextSeq500 using manufacturer's instructions with a read length of 75 bp and a read depth of 30 million. Raw data was assembled to FASTQ files. Following QC analysis, high quality sequencing reads (e.g., reads with a Phred quality score >36) were aligned to the mouse reference genome (GRCm38-mm10) using the default parameters of the align algorithm and transcript count tables of each library was generated using the default parameters of the featureCounts algorithm of the RSubread package (Liao […], Shi W, 2019). High quality sequencing reads mapped to 27,129 genes. Following additional QC of low count filtering (i.e. transcripts <10 counts across all samples), 16,207 genes were identified and used for further analysis. The remaining sequencing read counts of the included 16,207 genes were normalized to library size, log-transformed, and were quantified as counts per million (CPM). Select RNA-seq counts were validated using qPCR. Sequencing read counts (CPM) were used for identification of differential gene expression between specified populations using the quasi-likelihood methodology of the edgeR package. […] MA plots were generated using edgeR. Heatmaps and other plots were generated using the gplots and ggplot2 package.

[1] = atrasentan 10 mg/kg/day vs 0 mg/kg/day (control), g-ddY mice
[2] = atrasentan 20 mg/kg/day vs 0 mg/kg/day (control), g-ddY mice
[3] = atrasentan 30 mg/kg/day vs 0 mg/kg/day (control), g-ddY mice

## CCCCN(CCCC)C(=O)CN1C[C@H](c2ccc3c(c2)OCO3)[C@@H](C(=O)O)[C@@H]1c1ccc(OC)cc1 [atrasentan, (2R,3R,4S)-4-(1,3-benzodioxol-5-yl)-1-[2-(dibutylamino)-2-oxoethyl]-2-(4-methoxyphenyl)pyrrolidine-3-carboxylic acid]
10 mg/kg/day
  ET1 gene signature genes downregulated versus untreated control: Grk5, Mllt3, Klf2, Pparg, Hgf, Edn1, Fos, Ptgs2, and IL-1b
  ET1 gene signature genes upregulated versus untreated control: Ccnd1, Ppara, Agt, Map2k2 and Hoxa9
20 mg/kg/day
  ET1 gene signature genes downregulated versus untreated control: Nfatc1, Grk5, Klf2, Cav1, Pparg, Itga5, Myc, Ednra, Sell, Hgf, Mmp2, Edn1, Syk, Fos, and IL-1b
  ET1 gene signature genes upregulated versus untreated control: Ccdn1, Cat, Ppara, Map2k2, Hoxa9, Agt, and Egfr
30 mg/kg/day
  ET1 gene signature genes downregulated versus untreated control: Ednrb, Myc, Mllt3, Hdac7, Ednra, Itga5, Grk5, Pparg, Klf2, Hgf, Mmp2, Sell, Sphk1, Fos, Syk, Edn1, and IL-1b
  ET1 gene signature genes upregulated versus untreated control: Ccnd1, Agt, Cat, Map2k2, Hoxa9, and Ppara
  gene expression of Ednra and Ednrb: downregulated
All three doses (10, 20, 30 mg/kg/day)
  gene expression of ET1 (End1): downregulated
[1]
  logFC Ahnak gene expression: −0.5756
  logFC Akap12 gene expression: −0.2687
  logFC Akt3 gene expression: −0.3863
  logFC Aldob gene expression: 0.4194
  logFC Ankrd12 gene expression: −0.2824
  logFC C7 gene expression: −0.7767
  logFC Caldl gene expression: −0.3719
  logFC Cblb gene expression: −0.082
  logFC Ebfl gene expression: −0.3301
  logFC Epb4112 gene expression: −0.4375
  logFC Etsl gene expression: −0.2198
  logFC Fchsd2 gene expression: −0.2564
  logFC Frmd4a gene expression: −0.2838
  logFC Gata3 gene expression: −0.4822
  logFC Gpx3 gene expression: 0.6802
  logFC Igfbp7 gene expression: 0.2052
  logFC Lama2 gene expression: −0.2955
  logFC Maml2 gene expression: −0.2318
  logFC Mef2c gene expression: −0.6217
  logFC Meisl gene expression: −0.2507
  logFC Myh9 gene expression: −0.2094
  logFC Myole gene expression: −0.2349
  logFC Nbea gene expression: −0.2819
  logFC Nr4a1 gene expression: −1.525
  logFC Piezo2 gene expression: −0.4078
  logFC Postn gene expression: −1.385
  logFC Pparg gene expression: −0.6129
  logFC Ppp1r12a gene expression: −0.1995
  logFC Prkgl gene expression: −0.2187
  logFC Psd3 gene expression: −0.3544
  logFC Ptprm gene expression: −0.2614
  logFC Rapgef5 gene expression: −0.2732
  logFC Raphl gene expression: −0.2965
  logFC Rbms3 gene expression: −0.5749
  logFC Robol gene expression: −0.4803
  logFC Stard13 gene expression: −0.7224
  logFC Tacc1 gene expression: −0.2449
  logFC Tcf4 gene expression: −0.2176
  logFC Tjpl gene expression: −0.2489
  logFC Tns3 gene expression: −0.2638
  logFC Unc5c gene expression: 0.5618
  logFC Utrn gene expression: −0.49
  logFC Zeb2 gene expression: −0.5638
[2]
  logFC Ahnak gene expression: −0.7128
  logFC Akap12 gene expression: −0.5404
  logFC Akt3 gene expression: −0.4673
  logFC Aldob gene expression: 0.4923
  logFC Ankrd12 gene expression: −0.2463
  logFC C7 gene expression: −1.277
  logFC Caldl gene expression: −0.5361
  logFC Cblb gene expression: −0.2068
  logFC Ebfl gene expression: −0.3512
  logFC Epb4112 gene expression: −0.6149
  logFC Etsl gene expression: −0.3065
  logFC Fchsd2 gene expression: −0.1882
  logFC Frmd4a gene expression: −0.3955
  logFC Gata3 gene expression: −0.4924
  logFC Gpx3 gene expression: 0.71
  logFC Igfbp7 gene expression: 0.1088
  logFC Lama2 gene expression: −0.4437
  logFC Maml2 gene expression: −0.2311
  logFC Mef2c gene expression: −0.6302
  logFC Meisl gene expression: −0.3593
  logFC Myh9 gene expression: −0.4543
  logFC Myole gene expression: −0.292
  logFC Nbea gene expression: −0.1933
  logFC Piezo2 gene expression: −0.6148
  logFC Postn gene expression: −2.293
  logFC Pparg gene expression: −0.5616
  logFC Ppp1r12a gene expression: −0.2135
  logFC Prkgl gene expression: −0.328
  logFC Psd3 gene expression: −0.5227
  logFC Ptprm gene expression: −0.2678
  logFC Rapgef5 gene expression: -0.3804
  logFC Raphl gene expression: −0.3852
  logFC Rbms3 gene expression: −0.7192
  logFC Robol gene expression: −0.7261
  logFC Stard13 gene expression: −0.6367
  logFC Tacc1 gene expression: −0.3693
  logFC Tcf4 gene expression: −0.224
  logFC Tjpl gene expression: −0.3054
  logFC Tns3 gene expression: −0.3043
  logFC Unc5c gene expression: 0.3685
  logFC Utrn gene expression: −0.5143
  logFC Zeb2 gene expression: −0.6492
[3]
  logFC Ahnak gene expression: −1.013
  logFC Akap12 gene expression: −0.8211
  logFC Akt3 gene expression: −0.4843
  logFC Aldob gene expression: 0.748
  logFC Ankrd12 gene expression: −0.4726
  logFC C7 gene expression: −1.079
  logFC Caldl gene expression: −0.506
  logFC Cblb gene expression: −0.4288
  logFC Ebfl gene expression: −0.4506
  logFC Epb4112 gene expression: −0.7021
  logFC Etsl gene expression: −0.3379
  logFC Fchsd2 gene expression: −0.3772
  logFC Frmd4a gene expression: −0.5742
  logFC Gata3 gene expression: −0.5216
  logFC Gpx3 gene expression: 1.122
  logFC Igfbp7 gene expression: 0.4259
  logFC Lama2 gene expression: −0.4895
  logFC Maml2 gene expression: −0.4441
  logFC Mef2c gene expression: −0.6869
  logFC Meisl gene expression: −0.4934
  logFC Myh9 gene expression: −0.6171
  logFC Myole gene expression: −0.4177
  logFC Nbea gene expression: −0.432
  logFC Piezo2 gene expression: −0.8237
  logFC Postn gene expression: −1.247
  logFC Pparg gene expression: −0.6781
  logFC Ppp1r12a gene expression: −0.3826
  logFC Prkgl gene expression: −0.6356
  logFC Psd3 gene expression: −0.5843
  logFC Ptprm gene expression: −0.5453
  logFC Rapgef5 gene expression: −0.4225
  logFC Raphl gene expression: −0.5358
  logFC Rbms3 gene expression: −0.8895
  logFC Robol gene expression: −0.6009
  logFC Stard13 gene expression: −0.8466
  logFC Tacc1 gene expression: −0.4924
  logFC Tcf4 gene expression: −0.3055
  logFC Tjpl gene expression: −0.3989
  logFC Tns3 gene expression: −0.4522
  logFC Unc5c gene expression: 0.9517
  logFC Utrn gene expression: −0.7697
  logFC Zeb2 gene expression: −0.6778
